{"source": "patent US20250381179A1", "about": "“CHROMAN-BASED COMPOUNDS FOR TREATING CANCER” (priority 2024, published 2025)", "key": {"MCF7 cells": {"system": "MCF7 cells", "experiment": "MCF7 cell growth inhibition (luminescence-based proliferation assay, CellTiter-Glo)", "experimental": "MCF7 cells were obtained from American Type Culture Collection (ATCC). For cell growth assay, MCF7 cells were seeded in 96-well plates at 2000 cells/well in 90 μL of DMEM medium containing 10% fetal bovine serum, and then incubated at 37° C. with 5% CO2 in air overnight. The following day, compound (1-g) and compound (1-h) were administered to the cells by using 1000× compound stock solution prepared in DMSO at concentrations of 3, 1, 0.33, 0.11, 0.037, 0.012, 0.0041, 0.0013, and 0.00046 mM. 1000x compound stock solution was first diluted in culturing medium to 10×, then 10 μL compound medium was added to each well in the cell plates. After administration of compound (1-g) and compound (1-h), the cells were then incubated at 37° C. for 6 days. Upon completion, the plates were equilibrated at room temperature for approximately 10 minutes. 100 μL of CellTiter-Glo® Reagent (Promega) was added to each well. The plates were then incubated at room temperature for 10 minutes and luminescence was recorded by EnSpire plate reader (PerkinElmer)."}, "[1]": {"experiment": "Phase 1 study: plasma pharmacokinetics in patients", "type": "in vivo, human", "conditions": "human, plasma, po; for AUC(0-t): read-out: AUC0-24 h of (1-h); for Tmax: read-out: Tmax* of (1-h); for Cmax: read-out: Cmax of (1-h)", "experimental": "All patients received compound (1-g) orally. The time of day for administration of compound (1-g) was consistent. Compound (1-g) was taken whole with liquid(s) and with food in the morning. The patient avoided taking other medications at the same time as compound (1-g). When possible, the patient took other medications in the evening or separated by a minimum of 4 hours following compound (1-g) dosing. On scheduled PK collection days (Cycle 1 Day 1, Cycle 1 Day 15, and Day 1 of Cycles 2, 3, 4, and 6) patients were instructed to wait until they arrive at the study center to take their study drug when told. If a patient missed a dose of compound (1-g), the patient was required to take the dose as soon as possible, but not less than 12 hours before the next dose is due. If vomiting occurred after taking the study treatment, the patient was instructed not to retake the dose and record the dose recorded as taken in the dosing diary, noting that the patient vomited and marking the time of vomiting. Patients were instructed to take the next scheduled dose of compound (1-g).\nThe plasma PK parameters (including AUC(0-∞), AUC(0-τ), Cmax, tmax, and T1/2) of compound (1-g) following oral administration was assessed by analysis of blood samples. During treatment, PK blood samples were taken at approximately the following time points: • Cycle 1 Day 1, and Day 15: pre-dose; at 1, 2, and 4-hour post-dose (±5 min); 6 and 8-hour post-dose (±10 min); and 24 hours post-dose (+1 hour); • Cycle 2, 3, 4, and 6 Day 1: pre-dose only.\nPlasma concentrations of compound (1-g) were used to calculate the PK parameters. These parameters were listed by individual patient and summarized by descriptive statistics (means, medians, ranges, standard deviations, and coefficients of variation as appropriate) by cohort.\nCompound (1-g) was administered orally to patients once a day at 100, 200, 300 mg, 400 mg, and 600 mg doses."}, "[2]": {"conditions": "100 mg, patient plasma after oral (1-g) 100 mg QD, C1D15, n = 2, mean"}, "[3]": {"conditions": "200 mg, patient plasma after oral (1-g) 200 mg QD, C1D1, n = 12, mean"}, "[4]": {"conditions": "200 mg, patient plasma after oral (1-g) 200 mg QD, C1D15, n = 12, mean"}, "[5]": {"conditions": "300 mg, patient plasma after oral (1-g) 300 mg QD, C1D1, n = 10, mean"}, "[6]": {"conditions": "300 mg, patient plasma after oral (1-g) 300 mg QD, C1D15, n = 10, mean"}, "[7]": {"conditions": "400 mg, patient plasma after oral (1-g) 400 mg QD, C1D1, n = 6, mean"}, "[8]": {"conditions": "400 mg, patient plasma after oral (1-g) 400 mg QD, C1D15, n = 5, mean"}, "[9]": {"conditions": "600 mg, patient plasma after oral (1-g) 600 mg QD, C1D1, n = 4, mean"}, "[10]": {"conditions": "600 mg, patient plasma after oral (1-g) 600 mg QD, C1D15, n = 4, mean"}}, "note": "Read-outs that look alike come from different tables or passages of the source."}
{"smiles": "O=C1CC[C@@H](N2Cc3cc(N4CCN(CC5CCN(c6ccc([C@@H]7c8ccc(O)cc8OC[C@@H]7c7ccccc7)cc6F)CC5)CC4)ccc3C2=O)C(=O)N1", "note": "[compound (1-h), (R)-3-(5-(4-((1-(2-fluoro-4-((3S,4R)-7-hydroxy-3-phenylchroman-4-yl)phenyl)piperidin-4-yl)methyl)piperazin-1-yl)-1-oxoisoindolin-2-yl)piperidine-2,6-dione]", "values": [{"measurement": "GI50", "setting": "MCF7 cells; Homo sapiens, 144 h, MCF7 cells, 6 days, CellTiter-Glo", "result": 9, "unit": "nM"}, {"measurement": "reduced the tumor growth by (FIG. 3A/3B)", "setting": "MCF7 cells; MCF7 cell proliferation assay", "result": "about 62%"}, {"measurement": "AUC(0-t)", "setting": "[1]; 100 mg, patient plasma after oral (1-g) 100 mg QD, C1D1, n = 1, mean", "result": 0.332, "unit": "µg·h/mL"}, {"measurement": "Tmax", "setting": "[1]; 100 mg, patient plasma after oral (1-g) 100 mg QD, C1D15, n = 2, *median value", "result": 12, "unit": "h"}, {"measurement": "AUC(0-t)", "setting": "[1]; [2]", "result": 7.08, "unit": "µg·h/mL"}, {"measurement": "Cmax", "setting": "[1]; [2]", "result": 0.326, "unit": "µg/mL"}, {"measurement": "AUC(0-t)", "setting": "[1]; [3]", "result": 1.03, "unit": "µg·h/mL"}, {"measurement": "Cmax", "setting": "[1]; [3]", "result": 0.0688, "unit": "µg/mL"}, {"measurement": "Tmax", "setting": "[1]; 200 mg, patient plasma after oral (1-g) 200 mg QD, C1D15, n = 12, *median value", "result": 7.17, "unit": "h"}, {"measurement": "AUC(0-t)", "setting": "[1]; [4]", "result": 9.54, "unit": "µg·h/mL"}, {"measurement": "Cmax", "setting": "[1]; [4]", "result": 0.428, "unit": "µg/mL"}, {"measurement": "AUC(0-t)", "setting": "[1]; [5]", "result": 1.61, "unit": "µg·h/mL"}, {"measurement": "Cmax", "setting": "[1]; [5]", "result": 0.112, "unit": "µg/mL"}, {"measurement": "Tmax", "setting": "[1]; 300 mg, patient plasma after oral (1-g) 300 mg QD, C1D15, n = 10, *median value", "result": 5.8, "unit": "h"}, {"measurement": "AUC(0-t)", "setting": "[1]; [6]", "result": 15.4, "unit": "µg·h/mL"}, {"measurement": "Cmax", "setting": "[1]; [6]", "result": 0.68, "unit": "µg/mL"}, {"measurement": "AUC(0-t)", "setting": "[1]; [7]", "result": 1.74, "unit": "µg·h/mL"}, {"measurement": "Cmax", "setting": "[1]; [7]", "result": 0.118, "unit": "µg/mL"}, {"measurement": "Tmax", "setting": "[1]; 400 mg, patient plasma after oral (1-g) 400 mg QD, C1D15, n = 5, *median value", "result": 4.8, "unit": "h"}, {"measurement": "AUC(0-t)", "setting": "[1]; [8]", "result": 17.9, "unit": "µg·h/mL"}, {"measurement": "Cmax", "setting": "[1]; [8]", "result": 0.82, "unit": "µg/mL"}, {"measurement": "AUC(0-t)", "setting": "[1]; [9]", "result": 2.47, "unit": "µg·h/mL"}, {"measurement": "Cmax", "setting": "[1]; [9]", "result": 0.17, "unit": "µg/mL"}, {"measurement": "Tmax", "setting": "[1]; 600 mg, patient plasma after oral (1-g) 600 mg QD, C1D15, n = 4, *median value", "result": 10, "unit": "h"}, {"measurement": "AUC(0-t)", "setting": "[1]; [10]", "result": 18.7, "unit": "µg·h/mL"}, {"measurement": "Cmax", "setting": "[1]; [10]", "result": 0.829, "unit": "µg/mL"}]}
